In brackets after ≈: the same amount, converted by molar mass. Several values for one entry are separate records, joined by “and”; a condition that tells them apart may be missing. Equal entries are not always repeated. Where two headings read alike, the source gives them in different places. Marks after values point to notes of the source that are not given here.

Results on 2 molecules are retold here after patent US20240426776A1, “RAPID DIFFERENTIATION OF ANTIBIOTIC-SUSCEPTIBLE AND -RESISTANT BACTERIA THROUGH MEDIATED EXTRACELLULAR ELECTRON TRANSFER” (priority 2021, published 2024).

The subject of assay [1] is Gram-negative 1 AR55 and Gram-negative 2 AR58. As to the kind of experiment: READAS operator blinded test. It counts as cell-based. The note with it: for ASIn: imipenem increased from 2× to 20× (12 to 120 μg/mL), OD600=0.1; for READAS susceptibility (first symbol of cell): imipenem up to 20× (120 μg/mL). As for the experimental part: Tests were conducted for which the species or resistance phenotype was not known beyond the fact that one set was a Gram-positive and the other Gram-negative, and the antibiotics to be tested were oxacillin and imipenem, respectively. The isolates were provided as coded streak plates. Because the species were unknown, the breakpoint concentration of oxacillin and imipenem were estimated from the known breakpoints of the four previously tested strains (as shown in Table 1; 6 μg/mL for oxacillin, S. aureus and 6 μg/mL imipenem for Gram-negative strains). Following the decision methodology for determining antibiotic susceptibility and resistance of READAS, the strains were first tested with 2× the resistance breakpoint concentration (12 μg/mL oxacillin or imipenem) and the ASI2 was measured. This was increased up to 24× the resistance breakpoint concentration. If ASI2≥0.4 then the strain was considered susceptible. […] If neither strain achieved an ASI2≥0.4, 24× the resistance breakpoint concentration was tested and the ASI24 was measured.
As another example method of operation, operator blinded tests were conducted using susceptible and resistant strains of Gram-positive and -negative bacteria. Because the species identification was unknown, […] oxacillin was chosen as the estimated resistance breakpoint for the Gram-positive strain and 6 μg/mL imipenem was initially chosen as the resistance breakpoint for the Gram-negative strain. The stains selected for this example method of operation include Gram-positive 1 ATCC 29213, Gram-positive 2 BAA-1026, Gram-negative 1 AR55 and Gram-negative 2 AR58 with cultures of OD600=0.1, for simplicity.
Both Gram-positive strains were correctly classified using 2×(12 μg/mL oxacillin) in <120 min (97±45 min and 103±33 min). The Gram-negative strains were also correctly classified after increasing concentrations of imipenem from 2× to 20×(12 to 120 μg/mL imipenem). […] These phenotypic results were confirmed with results of standard procedure known to those skilled in the art and are included in Table 4 below, wherein READAS(S) susceptibility was defined by an ASIn≥0.4; (R) resistant was defined by an ASIn<0.4; analysis time shown in minutes. The standard procedure established susceptibility or resistance, MIC in μg/mL, and analysis time shown in hours.

Assay [2] relates to Klebsiella pneumoniae (strains 34 and 115). As to the kind of experiment: microbe, parasite or virus in culture. The note with it: for MIC: Klebsiella pneumoniae, MH media, 16-18 h, 37° C. As for the experimental part: (§1) Testing for S. aureus susceptibility to oxacillin differed with incubation at 30° C. for 18-24 h in MH media supplemented with 2% NaCl.
(§2) Values listed in Table 2 below include the estimated minimum inhibitory concentration from this study (μg/mL), the determination of(S) sensitive or (R) resistant microbes according to CLSI criteria, and the CLSI guidelines (μg/mL) for the species being tested. Empty cells were not evaluated.

Assay [3] relates to Acinetobacter baumannii (strains 35, 78, 83, and 102). The settings on record: cited from earlier work.
The test system of assay [4] is Staphylococcus aureus (strains 29213 and 43300). As to the kind of experiment: READAS electrochemical current response with PMS mediator (ASIn). The format is cell-based. The note with it: for ASIn (antibiotic susceptibility index), single replicates: tobramycin 10× breakpoint (160 μg/mL), ASI10, 15 μM PMS, 0.1 OD600. As for the experimental part: Each measurement was replicated at least four times.
(S. aureus experiments) or 37° C. (all others) MH media.
The current responses measured follows a sigmoidal curve structure.
As a second example method of operation, the S. aureus strains selected from Table 2 were assessed. Initially, a 2×CLSI resistance breakpoint concentrations for two antibiotics oxacillin (12 μg/mL) and tobramycin (32 μg/mL) were used for the example method of operation. The ASI2<0.4 and it was concluded that the concentration of the antibiotics was insufficient to classify the strains as antibiotic-susceptible or -resistant. S. aureus was then treated with 4×, 6×, 8×, 10×, and 20× the breakpoint concentration of oxacillin and was compared to the control as depicted in FIG. 8A. […] S. aureus was also treated with 4× and 10× the breakpoint concentration of tobramycin and was compared to the control depicted in FIG. 8B. […] The efficacy of antibiotic was proportional to the concentration when a high cell density (1.1×10^8 CFU/mL) was used.
The ASIn analysis time for classifying the strains as resistant or susceptible for tobramycin treatment was 33-78 min which was 30 min less than needed for detecting oxacillin susceptibility which required 60-96 min.

Assay [5] shares this test system. The note with it: cited from earlier work.
Assay [6] has the same test system. Description: Microdilution antibiotic susceptibility assay (MIC, CLSI guidelines). It counts as cell-based. The settings on record: for MIC: Staphylococcus aureus, MH media, oxacillin: 30° C., 18-24 h, 2% NaCl, read-out: estimated minimum inhibitory concentration from this study. As for the experimental part:
as §1, §2

As to `C[C@@H](O)[C@H]1C(=O)N2C(C(=O)O)=C(SCCN=CN)C[C@H]12` [Imipenem, imipenem], the results for the ASIn in assay [1] (Gram-negative 1 (AR55)) and in assay [1] (Gram-negative 2 (AR58)) were 0.1 ± 0.23^c and 0.99 ± 0.01^c, respectively. For the same molecule, the figures for the “READAS susceptibility (first symbol of cell)” value in assay [1] (Gram-negative 1 (AR55)) and in assay [1] (Gram-negative 2 (AR58)) were “R/R ((R) resistant was defined by an ASIn<0.4)” and “S/S (READAS(S) susceptibility was defined by an ASIn≥0.4)”, respectively. In addition, the MIC in assay [2] (read-out: estimated minimum inhibitory concentration from this study, strain 34) was 2 µg/mL (≈ 6.68 µM); in assay [2] (read-out: estimated minimum inhibitory concentration from this study, strain 115), 64 µg/mL (≈ 214 µM). Besides, the “sensitive or resistant according to CLSI criteria” value in assay [2] (strain 34) is reported as “S”; in assay [2] (strain 115) it was “R”.

With `NC[C@H]1O[C@H](O[C@H]2[C@H](O)[C@@H](O[C@H]3O[C@H](CO)[C@@H](O)[C@H](N)[C@H]3O)[C@H](N)C[C@@H]2N)[C@H](N)C[C@@H]1O` [Tobramycin, tobramycin], the “CLSI guidelines (resistance breakpoint) for the species” value in assay [3] and in assay [5] was 16 µg/mL each time. In addition, in assay [4] (oxacillin 4×, 6×, 8×, 10×, 20× breakpoint (FIG. 8A), tobramycin 4× and 10× (FIG. 8B), […]10^8 CFU/mL), the “current response with increasing antibiotic concentration” value is “decreased the current magnitude to ASIn≥0.4 and increased the response time”. Further, the “ASIn (antibiotic susceptibility index), single replicates” value in assay [4] (strain 29213 (susceptible)) is 0.52 and 0.6 and 0.16 and 0.34; in assay [4] (strain 43300 (resistant)), 0.12 and −0.01 and −0.42. For the same molecule, the “average ASI10 (±SE)” value in assay [4] (strain 43300 (resistant), tobramycin 10× (160 μg/mL)) is on record as −0.10±0.14. Moreover, the MIC in assay [6] (strain 29213) was 1 µg/mL (≈ 2.14 µM); in assay [6] (strain 43300), 128 µg/mL (≈ 274 µM). The “sensitive or resistant according to CLSI criteria” value in assay [6] (strain 29213) is “S”; in assay [6] (strain 43300), “R”.
